Reference: patent publication US20260176320A1, “MODULATORS OF G-PROTEIN COUPLED RECEPTORS” (priority 2018, published 2026)
Read-outs that look alike come from different tables or passages of the source.

Assays:
Assay type in all cases: cell-based
[1] = molecular target: T1, GLP-1R (Homo sapiens, UniProt P43220); test: PathHunter β-arrestin assay
In short: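 Following a 90 min agonist exposure at 37 °C in 0.2% BSA medium, β-arrestin coupling was detected by chemiluminescence after 3 h at room temperature.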

[2] = molecular target: T2, GIP-R (Homo sapiens, UniProt P48546); test: HitHunter cAMP assay (GIP-R); conditions: cAMP; for EC50: EC50 GIP-R/nM; for Emax: read-out: (Emax) GIP-R
T2 sequence (P48546 22-466): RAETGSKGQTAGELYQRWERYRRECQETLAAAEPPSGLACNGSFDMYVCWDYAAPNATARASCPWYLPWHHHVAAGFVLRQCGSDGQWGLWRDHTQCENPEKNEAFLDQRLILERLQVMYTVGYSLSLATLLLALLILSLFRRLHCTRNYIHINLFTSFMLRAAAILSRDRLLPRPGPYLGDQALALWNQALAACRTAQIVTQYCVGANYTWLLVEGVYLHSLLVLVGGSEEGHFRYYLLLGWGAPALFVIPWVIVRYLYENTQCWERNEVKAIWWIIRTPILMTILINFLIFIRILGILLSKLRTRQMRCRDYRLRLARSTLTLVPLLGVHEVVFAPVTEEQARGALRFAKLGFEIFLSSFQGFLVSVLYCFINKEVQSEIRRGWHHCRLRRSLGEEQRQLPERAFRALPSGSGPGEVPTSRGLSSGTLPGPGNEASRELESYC
In short: (§1)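 Duplicate 22-point, 2-fold agonist titrations applied to receptor-expressing suspension cells in IBMX-containing HBSS; 30 min RT stimulation. Read: luminescent cAMP immunocompetition after O/N dark incubation.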

[3] = molecular target: T1, GLP-1R; test: HitHunter cAMP assay (GLP-1R); conditions: cAMP; for EC50: EC50 GLP-1R/nM; for Emax: read-out: (Emax) GLP-1R
In short: as §1

T1 sequence (P43220 24-463): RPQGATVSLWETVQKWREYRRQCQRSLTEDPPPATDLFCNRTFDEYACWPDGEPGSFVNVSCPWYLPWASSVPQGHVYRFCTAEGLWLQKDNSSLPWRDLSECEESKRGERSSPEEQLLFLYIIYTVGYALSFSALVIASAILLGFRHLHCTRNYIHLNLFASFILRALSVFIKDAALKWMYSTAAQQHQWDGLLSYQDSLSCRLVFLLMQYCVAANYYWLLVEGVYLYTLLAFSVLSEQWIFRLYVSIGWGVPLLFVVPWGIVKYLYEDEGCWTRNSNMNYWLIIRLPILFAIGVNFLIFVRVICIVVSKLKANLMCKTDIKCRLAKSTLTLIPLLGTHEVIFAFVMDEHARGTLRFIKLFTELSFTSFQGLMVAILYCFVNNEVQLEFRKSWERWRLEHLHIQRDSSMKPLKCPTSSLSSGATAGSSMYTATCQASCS

| SMILES | EC50 [1] | EC50 ([2]; Table 3) | EC50 ([2]; Table 3A) | Emax ([2]; Table 3) | Emax ([2]; Table 3A) | EC50 ([3]; Table 3) | EC50 ([3]; Table 3A) | Emax ([3]; Table 3) | Emax ([3]; Table 3A) | Emax at 1 µM ([2]; read-out: (Emax) GIP-R at 1 μM, Table 3) | Emax at 1 µM ([2]; read-out: (Emax) GIP-R at 1 μM, Table 3A) |
| --- | --- | --- | --- | --- | --- | --- | --- | --- | --- | --- | --- |
| CCCCCCCCCCCCCCCC(=O)N[C@@H](CCC(=O)NCCCC[C@H](NC(=O)[C@H](CO)NC(=O)[C@@H]1CCCN1C(=O)[C@@H]1CCCN1C(=O)[C@@H]1CCCN1C(=O)[C@H](C)NC(=O)CNC(=O)[C@H](CO)NC(=O)[C@H](CO)NC(=O)[C@@H]1CCCN1C(=O)CNC(=O)CNC(=O)[C@H](C)NC(=O)[C@H](CC(C)C)NC(=O)[C@H](CC(C)C)NC(=O)[C@H](Cc1c[nH]c2ccccc12)NC(=O)[C@H](CC(N)=O)NC(=O)[C@@H](NC(=O)[C@H](Cc1ccccc1)NC(=O)[C@H](CCC(=O)O)NC(=O)C(C)(C)NC(=O)[C@H](C)NC(=O)[C@H](C)NC(=O)[C@H](CCC(N)=O)NC(=O)[C@H](CCCCN)NC(=O)[C@H](CC(=O)O)NC(=O)[C@H](CC(C)C)NC(=O)[C@H](Cc1ccc(O)cc1)NC(=O)[C@@H](NC(=O)[C@H](CO)NC(=O)[C@H](Cc1ccc(O)cc1)NC(=O)[C@H](CC(=O)O)NC(=O)[C@H](CO)NC(=O)[C@@H](NC(=O)[C@H](Cc1ccccc1)NC(=O)[C@@H](NC(=O)CNC(=O)[C@H](CCC(=O)O)NC(=O)CSCC(=O)NCCN1C(=O)[C@H]2CC[C@H]2C1=O)[C@@H](C)O)[C@@H](C)O)[C@@H](C)CC)C(C)C)C(N)=O)C(=O)O [Compound 97] | > 1000 nM | 0.1 to 1 nM | 0.1 to 1 nM | 93% | 93% | 1 to 10 nM | 1 to 10 nM | 99% | 99% |  |  |
| CCCCCCCCCCCCCCCC(=O)N[C@@H](CCC(=O)NCCCC[C@H](NC(=O)[C@H](CO)NC(=O)[C@@H]1CCCN1C(=O)[C@@H]1CCCN1C(=O)[C@@H]1CCCN1C(=O)[C@H](C)NC(=O)CNC(=O)[C@H](CO)NC(=O)[C@H](CO)NC(=O)[C@@H]1CCCN1C(=O)CNC(=O)CNC(=O)[C@H](C)NC(=O)[C@H](CC(C)C)NC(=O)[C@H](CC(C)C)NC(=O)[C@H](Cc1c[nH]c2ccccc12)NC(=O)[C@H](CC(N)=O)NC(=O)[C@@H](NC(=O)[C@H](Cc1ccccc1)NC(=O)[C@H](CCC(=O)O)NC(=O)C(C)(C)NC(=O)[C@H](C)NC(=O)[C@H](C)NC(=O)[C@H](CCC(N)=O)NC(=O)[C@H](CCCCN)NC(=O)[C@H](CC(=O)O)NC(=O)[C@H](CC(C)C)NC(=O)[C@H](Cc1ccc(O)cc1)NC(=O)[C@@H](NC(=O)[C@H](CO)NC(=O)[C@H](Cc1ccc(O)cc1)NC(=O)[C@H](CC(=O)O)NC(=O)[C@H](CO)NC(=O)[C@@H](NC(=O)[C@H](Cc1ccccc1)NC(=O)[C@@H](NC(=O)CNC(=O)[C@H](CCC(=O)O)NC(=O)CSCC(=O)NCCN1C(=O)CC(C)(C)C1=O)[C@@H](C)O)[C@@H](C)O)[C@@H](C)CC)C(C)C)C(N)=O)C(=O)O [Compound 104] | > 1000 nM | 1 to 10 nM | 1 to 10 nM | 43 to 47% | 43 to 47% | 1 to 10 nM | 1 to 10 nM | 104 to 106% | 104 to 106% |  |  |
| CC[C@H](C)[C@H](NC(=O)[C@H](CO)NC(=O)[C@H](Cc1ccc(O)cc1)NC(=O)[C@H](CC(=O)O)NC(=O)[C@H](CO)NC(=O)[C@@H](NC(=O)[C@H](Cc1ccccc1)NC(=O)[C@@H](NC(=O)CNC(=O)[C@H](CCC(=O)O)NC(=O)CSCC(=O)NCCn1c(C)cc(C)cc1=O)[C@@H](C)O)[C@@H](C)O)C(=O)N[C@@H](Cc1ccc(O)cc1)C(=O)N[C@@H](CC(C)C)C(=O)N[C@@H](CC(=O)O)C(=O)N[C@@H](CCCCN)C(=O)N[C@@H](CCC(N)=O)C(=O)N[C@@H](C)C(=O)N[C@@H](C)C(=O)NC(C)(C)C(=O)N[C@@H](CCC(=O)O)C(=O)N[C@@H](Cc1ccccc1)C(=O)N[C@H](C(=O)N[C@@H](CC(N)=O)C(=O)N[C@@H](Cc1c[nH]c2ccccc12)C(=O)N[C@@H](CC(C)C)C(=O)N[C@@H](CC(C)C)C(=O)N[C@@H](C)C(=O)NCC(=O)NCC(=O)N1CCC[C@H]1C(=O)N[C@@H](CO)C(=O)N[C@@H](CO)C(=O)NCC(=O)N[C@@H](C)C(=O)N1CCC[C@H]1C(=O)N1CCC[C@H]1C(=O)N1CCC[C@H]1C(=O)N[C@@H](CO)C(=O)N[C@@H](CCCCN)C(N)=O)C(C)C [Compound 111] | > 1000 nM | 10 to 100 nM | 100 to 1000 nM |  |  | 10 to 100 nM | 10 to 100 nM | 94% | 94% | 12% | 12% |
